How the values were obtained:
[1] = molecular target: T1, Histamine H2 (Homo sapiens, UniProt P25021); set-up: Cerep Bioprint off-target panel, functional receptor agonism or antagonism; details: agonist
T1 construct: gene HRH2
Procedure, shortened: (§1)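 Compounds from a BDK inhibitor screen were counter-screened for off-target activity, with receptors in a CEREP panel and ABL1 in a kinase panel.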

[2] = molecular target: T2, Adrenergic Alpha 2a receptor (Homo sapiens, UniProt P08913); set-up: Cerep Bioprint off-target panel, functional receptor agonism or antagonism; details: agonist
T2 construct: gene ADRA2A
Procedure, shortened: as §1

[3] = molecular target: T3, Corticotrophin Releasing Factor 1 (CRF1) Receptor (Homo sapiens, UniProt P34998); set-up: Cerep Bioprint off-target panel, functional receptor agonism or antagonism
T3 construct: gene CRHR1
T3 sequence (P34998 1-415): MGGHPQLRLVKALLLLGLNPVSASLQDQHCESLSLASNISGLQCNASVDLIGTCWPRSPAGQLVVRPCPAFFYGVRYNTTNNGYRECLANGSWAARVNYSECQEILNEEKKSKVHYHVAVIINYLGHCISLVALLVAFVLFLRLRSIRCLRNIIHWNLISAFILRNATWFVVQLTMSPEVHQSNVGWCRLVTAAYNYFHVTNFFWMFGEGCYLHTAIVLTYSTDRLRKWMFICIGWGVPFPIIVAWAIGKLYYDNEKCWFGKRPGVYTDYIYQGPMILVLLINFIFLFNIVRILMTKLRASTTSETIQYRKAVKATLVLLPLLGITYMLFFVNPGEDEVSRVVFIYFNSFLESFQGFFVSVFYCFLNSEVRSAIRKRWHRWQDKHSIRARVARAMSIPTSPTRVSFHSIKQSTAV
Procedure, shortened: as §1

[4] = molecular target: T4, Histamine H1 (Homo sapiens, UniProt P35367); set-up: Cerep Bioprint off-target panel, functional receptor agonism or antagonism
T4 construct: gene HRH1
Procedure, shortened: as §1

[5] = molecular target: T5, Vasopressin 1a (Homo sapiens, UniProt P37288); set-up: Cerep Bioprint off-target panel, functional receptor agonism or antagonism; details: agonist
T5 construct: gene AVPR1A
Procedure, shortened: as §1

[6] = molecular target: T6, Dopamine D1 (Homo sapiens, UniProt P21728); set-up: Cerep Bioprint off-target panel, functional receptor agonism or antagonism
T6 construct: gene DRD1
Procedure, shortened: as §1

[7] = molecular target: T7, Kappa Opioid (Homo sapiens, UniProt P41145); set-up: Cerep Bioprint off-target panel, functional receptor agonism or antagonism; details: agonist
T7 construct: gene OPRK1
Procedure, shortened: as §1

[8] = molecular target: MKNK2 (Homo sapiens, UniProt Q9HBH9); set-up: Invitrogen Lantha screen kinase binding, per cent inhibition of binding; details: 10 µM, binder
Protocol: (§2) To discover a potent and selective BDK inhibitor, a subset of the Pfizer compound collection was screened. […] Off target activity was assessed in both CEREP and kinase panels (Supplementary Tables 2, 3).

[9] = molecular target: TGF-beta activated kinase 1/MAP3K7 binding protein 1 (MAP3K7IP1) (Homo sapiens, UniProt O43318); set-up: Invitrogen Lantha screen kinase binding, per cent inhibition of binding; details: 10 µM, binder
Protocol: as §2

[10] = molecular target: T8, PPAR-gamma (Homo sapiens, UniProt P37231); set-up: Cerep Bioprint off-target panel, ligand binding inhibition; details: binder
T8 construct: gene PPARG
T8 sequence (P37231 1-505): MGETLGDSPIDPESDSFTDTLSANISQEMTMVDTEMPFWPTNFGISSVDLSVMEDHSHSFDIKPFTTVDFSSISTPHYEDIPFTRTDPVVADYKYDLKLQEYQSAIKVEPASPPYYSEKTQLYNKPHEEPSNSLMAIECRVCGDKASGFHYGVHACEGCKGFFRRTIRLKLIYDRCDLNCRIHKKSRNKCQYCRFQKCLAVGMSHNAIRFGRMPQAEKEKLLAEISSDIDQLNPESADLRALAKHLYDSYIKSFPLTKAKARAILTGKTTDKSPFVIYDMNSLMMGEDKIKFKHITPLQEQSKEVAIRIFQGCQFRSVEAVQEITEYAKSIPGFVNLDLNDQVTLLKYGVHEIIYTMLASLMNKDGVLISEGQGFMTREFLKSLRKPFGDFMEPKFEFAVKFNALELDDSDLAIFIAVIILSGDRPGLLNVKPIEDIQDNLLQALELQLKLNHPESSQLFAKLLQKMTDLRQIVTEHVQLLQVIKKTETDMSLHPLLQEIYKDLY
Protocol: as §2

[11] = molecular target: T9, Glucocorticoid Receptor (Homo sapiens, UniProt P04150); set-up: Cerep Bioprint off-target panel, ligand binding inhibition; details: binder
T9 construct: gene NR3C1
Protocol: as §2

[12] = molecular target: T10, Serotonin Transporter (Homo sapiens, UniProt P31645); set-up: Cerep Bioprint off-target panel, ligand binding inhibition; details: binder
T10 construct: gene SLC6A4
Protocol: as §2

[13] = molecular target: T11, Norepinephrine Transporter (Homo sapiens, UniProt P23975); set-up: Cerep Bioprint off-target panel, ligand binding inhibition; details: binder
T11 construct: gene SLC6A2
Protocol: as §2

[14] = molecular target: T12, Serotonin 5-HT3 (Homo sapiens, UniProt P46098); set-up: Cerep Bioprint off-target panel, ligand binding inhibition; details: binder
T12 construct: gene HTR3A
Protocol: as §2

[15] = molecular target: T13, Dopamine Transporter (Homo sapiens, UniProt Q01959); set-up: Cerep Bioprint off-target panel, ligand binding inhibition; details: binder
T13 construct: gene SLC6A3
Protocol: as §2

[16] = molecular target: T14, Nicotinic Acetylcholine Receptor (alpha4, beta2 subunit containing) (Homo sapiens, UniProt P17787+P43681); set-up: Cerep Bioprint off-target panel, ligand binding inhibition; details: binder
T14 construct: gene CHRNB2
Protocol: as §2

[17] = molecular target: T15, Androgen Receptor (Homo sapiens, UniProt P10275); set-up: Cerep Bioprint off-target panel, ligand binding inhibition; details: binder
T15 construct: gene AR
Protocol: as §2

[18] = molecular target: T16, GABAa1 Receptor (Homo sapiens, UniProt P14867+P18507+P47870); set-up: Cerep Bioprint off-target panel, ligand binding inhibition; details: binder
T16 construct: gene GABRA1; alpha1
Protocol: as §2

[19] = molecular target: T17, Choline Transporter (Homo sapiens, UniProt Q9GZV3); set-up: Cerep Bioprint off-target panel, ligand binding inhibition; details: binder
T17 construct: gene SLC5A7
Protocol: as §2

T6 sequence (P21728 whole entry): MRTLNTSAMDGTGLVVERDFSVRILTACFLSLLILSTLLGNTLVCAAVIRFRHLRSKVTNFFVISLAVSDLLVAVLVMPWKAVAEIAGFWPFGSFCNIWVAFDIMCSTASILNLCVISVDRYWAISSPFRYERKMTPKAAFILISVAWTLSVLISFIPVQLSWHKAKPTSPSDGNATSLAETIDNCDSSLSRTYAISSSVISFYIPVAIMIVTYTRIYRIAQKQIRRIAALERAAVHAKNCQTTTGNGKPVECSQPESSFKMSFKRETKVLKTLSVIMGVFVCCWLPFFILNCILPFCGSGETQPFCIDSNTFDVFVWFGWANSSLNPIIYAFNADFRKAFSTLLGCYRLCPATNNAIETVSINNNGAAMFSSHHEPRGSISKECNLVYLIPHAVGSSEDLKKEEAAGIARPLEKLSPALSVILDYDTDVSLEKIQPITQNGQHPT
T4 sequence (P35367 whole entry): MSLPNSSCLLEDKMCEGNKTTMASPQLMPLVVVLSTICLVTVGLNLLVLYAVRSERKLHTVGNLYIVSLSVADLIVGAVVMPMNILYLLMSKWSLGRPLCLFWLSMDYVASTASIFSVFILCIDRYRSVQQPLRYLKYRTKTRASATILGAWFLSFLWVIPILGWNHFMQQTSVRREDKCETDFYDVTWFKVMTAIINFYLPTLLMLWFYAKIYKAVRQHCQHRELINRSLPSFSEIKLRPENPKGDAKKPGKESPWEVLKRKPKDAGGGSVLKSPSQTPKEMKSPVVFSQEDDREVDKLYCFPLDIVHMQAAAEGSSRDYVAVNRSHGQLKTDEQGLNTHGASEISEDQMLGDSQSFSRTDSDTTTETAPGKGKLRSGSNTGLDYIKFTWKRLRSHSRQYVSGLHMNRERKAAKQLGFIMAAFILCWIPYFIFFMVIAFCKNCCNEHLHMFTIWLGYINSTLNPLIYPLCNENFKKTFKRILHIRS
Sequence of MKNK2 (Q9HBH9 whole entry): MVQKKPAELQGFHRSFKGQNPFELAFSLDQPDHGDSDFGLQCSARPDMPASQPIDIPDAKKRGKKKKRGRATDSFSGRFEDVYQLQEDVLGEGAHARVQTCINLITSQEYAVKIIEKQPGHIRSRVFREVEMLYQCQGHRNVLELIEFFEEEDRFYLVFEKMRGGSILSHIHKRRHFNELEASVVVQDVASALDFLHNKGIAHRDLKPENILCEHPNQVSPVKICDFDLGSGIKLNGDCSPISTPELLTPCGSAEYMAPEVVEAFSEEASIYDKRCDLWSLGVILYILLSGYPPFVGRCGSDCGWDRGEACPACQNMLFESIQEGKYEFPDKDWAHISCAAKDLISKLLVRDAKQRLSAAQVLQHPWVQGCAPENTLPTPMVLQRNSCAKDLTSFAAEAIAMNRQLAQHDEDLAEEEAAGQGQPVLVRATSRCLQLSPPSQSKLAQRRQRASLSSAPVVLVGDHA
T17 sequence (Q9GZV3 whole entry): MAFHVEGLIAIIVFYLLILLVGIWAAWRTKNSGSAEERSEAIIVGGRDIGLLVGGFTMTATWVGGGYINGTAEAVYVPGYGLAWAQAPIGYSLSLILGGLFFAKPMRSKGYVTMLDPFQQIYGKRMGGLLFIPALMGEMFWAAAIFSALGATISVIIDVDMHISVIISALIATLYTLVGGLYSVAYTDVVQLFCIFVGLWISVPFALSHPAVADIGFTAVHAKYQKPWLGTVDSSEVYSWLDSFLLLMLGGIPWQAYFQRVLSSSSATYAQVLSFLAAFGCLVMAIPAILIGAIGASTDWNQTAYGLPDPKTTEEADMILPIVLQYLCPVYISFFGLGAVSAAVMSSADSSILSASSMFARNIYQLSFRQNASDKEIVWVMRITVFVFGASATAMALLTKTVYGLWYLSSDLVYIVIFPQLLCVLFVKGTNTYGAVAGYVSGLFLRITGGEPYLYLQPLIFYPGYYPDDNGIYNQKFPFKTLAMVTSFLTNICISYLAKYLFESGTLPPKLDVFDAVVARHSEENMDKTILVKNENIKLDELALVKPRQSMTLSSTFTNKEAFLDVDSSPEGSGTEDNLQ
T5 sequence (P37288 whole entry): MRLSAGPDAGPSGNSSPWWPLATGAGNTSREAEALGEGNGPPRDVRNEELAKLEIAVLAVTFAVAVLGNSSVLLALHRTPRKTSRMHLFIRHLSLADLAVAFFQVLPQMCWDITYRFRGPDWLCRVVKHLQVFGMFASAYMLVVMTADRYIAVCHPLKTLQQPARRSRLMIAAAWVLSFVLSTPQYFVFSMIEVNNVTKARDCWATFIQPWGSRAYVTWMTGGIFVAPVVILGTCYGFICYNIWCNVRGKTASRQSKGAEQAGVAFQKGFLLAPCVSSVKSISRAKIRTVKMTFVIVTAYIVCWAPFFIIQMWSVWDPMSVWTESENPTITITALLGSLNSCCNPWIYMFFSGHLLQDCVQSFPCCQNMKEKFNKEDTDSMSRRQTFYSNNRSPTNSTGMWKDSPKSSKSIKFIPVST
T10 sequence (P31645 whole entry): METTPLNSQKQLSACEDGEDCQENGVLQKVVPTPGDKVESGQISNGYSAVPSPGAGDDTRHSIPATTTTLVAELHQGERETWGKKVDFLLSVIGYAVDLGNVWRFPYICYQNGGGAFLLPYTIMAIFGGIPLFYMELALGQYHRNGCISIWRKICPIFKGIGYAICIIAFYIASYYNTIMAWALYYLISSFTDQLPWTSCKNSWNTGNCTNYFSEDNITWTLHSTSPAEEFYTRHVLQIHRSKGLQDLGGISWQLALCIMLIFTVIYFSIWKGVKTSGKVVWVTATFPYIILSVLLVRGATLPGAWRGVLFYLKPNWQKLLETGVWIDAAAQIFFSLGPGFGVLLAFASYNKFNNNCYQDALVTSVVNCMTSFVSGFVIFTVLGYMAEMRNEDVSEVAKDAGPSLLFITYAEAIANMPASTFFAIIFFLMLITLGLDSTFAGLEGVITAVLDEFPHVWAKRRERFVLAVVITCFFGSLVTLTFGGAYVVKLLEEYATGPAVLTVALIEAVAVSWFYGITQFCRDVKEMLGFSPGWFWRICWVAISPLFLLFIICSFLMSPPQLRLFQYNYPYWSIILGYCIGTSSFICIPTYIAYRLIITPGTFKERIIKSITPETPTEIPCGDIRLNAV
T9 sequence (P04150 whole entry): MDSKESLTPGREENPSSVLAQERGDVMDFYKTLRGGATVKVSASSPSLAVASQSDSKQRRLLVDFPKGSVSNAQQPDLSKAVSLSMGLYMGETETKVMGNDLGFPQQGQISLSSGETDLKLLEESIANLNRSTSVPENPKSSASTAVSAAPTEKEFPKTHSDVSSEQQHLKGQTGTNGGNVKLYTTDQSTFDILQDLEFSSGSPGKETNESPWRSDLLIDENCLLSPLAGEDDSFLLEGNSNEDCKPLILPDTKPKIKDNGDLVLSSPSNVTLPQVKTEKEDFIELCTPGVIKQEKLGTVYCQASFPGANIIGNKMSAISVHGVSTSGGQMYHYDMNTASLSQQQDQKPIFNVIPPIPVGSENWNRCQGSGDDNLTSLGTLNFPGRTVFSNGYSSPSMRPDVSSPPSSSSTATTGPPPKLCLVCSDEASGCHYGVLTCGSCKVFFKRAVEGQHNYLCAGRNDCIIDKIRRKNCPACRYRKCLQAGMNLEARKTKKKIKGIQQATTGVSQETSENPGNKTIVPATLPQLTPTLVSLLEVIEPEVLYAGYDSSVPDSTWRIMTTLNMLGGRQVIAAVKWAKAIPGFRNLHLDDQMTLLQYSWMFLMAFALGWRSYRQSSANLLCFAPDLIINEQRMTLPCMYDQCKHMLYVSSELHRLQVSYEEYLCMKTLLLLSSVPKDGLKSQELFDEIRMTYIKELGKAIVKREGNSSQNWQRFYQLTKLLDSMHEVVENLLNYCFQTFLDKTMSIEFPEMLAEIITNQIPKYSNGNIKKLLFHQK
T15 sequence (P10275 whole entry): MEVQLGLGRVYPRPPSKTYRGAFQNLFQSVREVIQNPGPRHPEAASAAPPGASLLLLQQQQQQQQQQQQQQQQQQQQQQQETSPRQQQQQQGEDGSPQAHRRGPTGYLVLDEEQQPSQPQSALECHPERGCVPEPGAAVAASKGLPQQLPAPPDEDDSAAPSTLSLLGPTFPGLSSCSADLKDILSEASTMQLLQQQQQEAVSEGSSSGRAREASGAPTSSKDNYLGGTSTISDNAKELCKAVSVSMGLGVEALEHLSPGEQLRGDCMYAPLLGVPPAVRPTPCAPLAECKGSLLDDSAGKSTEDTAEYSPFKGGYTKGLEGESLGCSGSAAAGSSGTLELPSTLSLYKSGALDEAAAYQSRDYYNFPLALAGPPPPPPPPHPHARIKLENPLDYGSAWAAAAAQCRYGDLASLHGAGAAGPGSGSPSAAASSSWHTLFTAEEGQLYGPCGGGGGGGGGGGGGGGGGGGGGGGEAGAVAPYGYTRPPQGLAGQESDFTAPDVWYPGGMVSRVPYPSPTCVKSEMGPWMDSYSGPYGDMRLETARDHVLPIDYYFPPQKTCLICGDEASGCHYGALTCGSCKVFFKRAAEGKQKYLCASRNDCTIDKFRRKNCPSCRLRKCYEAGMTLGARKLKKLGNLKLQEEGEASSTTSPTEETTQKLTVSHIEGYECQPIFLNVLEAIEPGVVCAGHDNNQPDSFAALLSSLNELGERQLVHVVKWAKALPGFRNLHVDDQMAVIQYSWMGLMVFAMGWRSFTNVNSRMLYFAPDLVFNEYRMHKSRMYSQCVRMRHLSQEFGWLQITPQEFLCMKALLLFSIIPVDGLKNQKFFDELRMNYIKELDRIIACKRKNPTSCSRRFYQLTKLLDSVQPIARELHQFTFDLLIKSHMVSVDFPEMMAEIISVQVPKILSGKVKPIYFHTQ

In the case of `O=C(O)c1sc2cc(F)sc2c1Cl` [PF-07208254, 3-chloro-5-fluorothieno[3,2-b]thiophene-2-carboxylic acid], the “% (agonism) PF-07208254” value ([1]; 100 µM) is reported as 0%, the “% (agonism) PF-07208254” value ([2]; 100 µM) is reported as -1% and the “% (agonism) PF-07208254” value ([3]; 100 µM, agonist) is reported as -2%. The “% Inhibition (antagonism) PF-07208254” value ([3]; 100 µM, antagonist) was 39%, the “% (agonism) PF-07208254” value ([4]; 100 µM, agonist) was -1% and the “% Inhibition (antagonism) PF-07208254” value ([4]; 100 µM, antagonist) was 17%. The “% (agonism) PF-07208254” value ([5]; 100 µM) was 16%, the “% (agonism) PF-07208254” value ([6]; 100 µM, agonist) was -4% and the “% Inhibition (antagonism) PF-07208254” value ([6]; 100 µM, antagonist) was -5%. For the same compound, the “% (agonism) PF-07208254” value ([7]; 100 µM) was -3%, the “Lantha Binding % Inhibition PF-07208254” value [8] was 11.8% and the “Lantha Binding % Inhibition PF-07208254” value [9] was 2.6%. The “% Inhibition (binding) PF-07208254” value ([10]; 100 µM) was 62%, the “% Inhibition (binding) PF-07208254” value ([11]; 100 µM) was 4% and the “% Inhibition (binding) PF-07208254” value ([12]; 100 µM) was -3%. For the same compound, the “% Inhibition (binding) PF-07208254” value ([13]; 100 µM) was -15%, the “% Inhibition (binding) PF-07208254” value ([14]; 100 µM) was -14% and the “% Inhibition (binding) PF-07208254” value ([15]; 100 µM) was 7%. For the same compound, the “% Inhibition (binding) PF-07208254” value ([16]; 100 µM) was -6%, the “% Inhibition (binding) PF-07208254” value ([17]; 100 µM) was -4% and the “% Inhibition (binding) PF-07208254” value ([18]; 100 µM) was -12%. The “% Inhibition (binding) PF-07208254” value ([19]; 100 µM) was -15%.

In the case of `CCC1(COc2ccc(-c3csc(-c4ccccc4C(=O)O)n3)cn2)CC1` [PF-07247685, 2-(4-{6-[(1-ethylcyclopropyl)methoxy]pyridin-3-yl}-1,3-thiazol-2-yl)benzoic acid], the “% (agonism) PF-07247685” value ([1]; 10 µM) is reported as 1%, the “% (agonism) PF-07247685” value ([2]; 10 µM) is reported as 0% and the “% (agonism) PF-07247685” value ([3]; 10 µM, agonist) is reported as 4%. The “% Inhibition (antagonism) PF-07247685” value ([3]; 10 µM, antagonist) was 11%, the “% (agonism) PF-07247685” value ([4]; 10 µM, agonist) was -5% and the “% Inhibition (antagonism) PF-07247685” value ([4]; 10 µM, antagonist) was -2%. For the same compound, the “% (agonism) PF-07247685” value ([5]; 10 µM) was -1%, the “% (agonism) PF-07247685” value ([6]; 10 µM, agonist) was 4% and the “% Inhibition (antagonism) PF-07247685” value ([6]; 10 µM, antagonist) was 5%. For the same compound, the “% (agonism) PF-07247685” value ([7]; 10 µM) was -7%, the “Lantha Binding % Inhibition PF-07247685” value [8] was 1.2% and the “Lantha Binding % Inhibition PF-07247685” value [9] was -1.9%. The “% Inhibition (binding) PF-07247685” value ([10]; 10 µM) was 21%, the “% Inhibition (binding) PF-07247685” value ([11]; 10 µM) was 0% and the “% Inhibition (binding) PF-07247685” value ([12]; 10 µM) was 2%. The “% Inhibition (binding) PF-07247685” value ([13]; 10 µM) was 6%, the “% Inhibition (binding) PF-07247685” value ([14]; 10 µM) was 0% and the “% Inhibition (binding) PF-07247685” value ([15]; 10 µM) was -1%. The “% Inhibition (binding) PF-07247685” value ([16]; 10 µM) was -4%, the “% Inhibition (binding) PF-07247685” value ([17]; 10 µM) was -8% and the “% Inhibition (binding) PF-07247685” value ([18]; 10 µM) was -21%. For the same compound, the “% Inhibition (binding) PF-07247685” value ([19]; 10 µM) was -12%.

From article PMC10412597, “Small molecule branched-chain ketoacid dehydrogenase kinase (BDK) inhibitors with opposing effects on BDK protein levels” (Nature Communications, 2023)
